# Measurements from patent US9340590B2 (priority 2011, dated 2016).
# Positions of bridges follow the written chain, without caps; N, C: chain ends. Non-standard residues stand in square brackets, D forms with d. Residues, ends and D or L forms follow the SMILES beside them. Phe(4-COOH) = N[C@@H](Cc1ccc(C(=O)O)cc1)C(=O)O; Phe(4-I) = N[C@@H](Cc1ccc(I)cc1)C(=O)O; 2Pal = N[C@@H](Cc1ccccn1)C(=O)O
# Legend:
# Assay in all cases: cell-based
# hNav1.7 = hNav1.7 (Homo sapiens, UniProt Q15858); format: cell-based; conditions: Table 25; IonWorks Quattro, use; […]; read-out: IWQ Use Nav1.7
# hNav1.5 = hNav1.5 (Homo sapiens, UniProt Q14524); conditions: Table 25; IonWorks Quattro, use; […]; read-out: IWQ Use Nav1.5
# hNav1.3 = hNav1.3 (Homo sapiens, UniProt Q9NY46); conditions: Table 25; IonWorks Quattro, use; […]; read-out: IWQ Use Nav1.3
# hNav1.3, sequence (Q9NY46 whole entry, looked up): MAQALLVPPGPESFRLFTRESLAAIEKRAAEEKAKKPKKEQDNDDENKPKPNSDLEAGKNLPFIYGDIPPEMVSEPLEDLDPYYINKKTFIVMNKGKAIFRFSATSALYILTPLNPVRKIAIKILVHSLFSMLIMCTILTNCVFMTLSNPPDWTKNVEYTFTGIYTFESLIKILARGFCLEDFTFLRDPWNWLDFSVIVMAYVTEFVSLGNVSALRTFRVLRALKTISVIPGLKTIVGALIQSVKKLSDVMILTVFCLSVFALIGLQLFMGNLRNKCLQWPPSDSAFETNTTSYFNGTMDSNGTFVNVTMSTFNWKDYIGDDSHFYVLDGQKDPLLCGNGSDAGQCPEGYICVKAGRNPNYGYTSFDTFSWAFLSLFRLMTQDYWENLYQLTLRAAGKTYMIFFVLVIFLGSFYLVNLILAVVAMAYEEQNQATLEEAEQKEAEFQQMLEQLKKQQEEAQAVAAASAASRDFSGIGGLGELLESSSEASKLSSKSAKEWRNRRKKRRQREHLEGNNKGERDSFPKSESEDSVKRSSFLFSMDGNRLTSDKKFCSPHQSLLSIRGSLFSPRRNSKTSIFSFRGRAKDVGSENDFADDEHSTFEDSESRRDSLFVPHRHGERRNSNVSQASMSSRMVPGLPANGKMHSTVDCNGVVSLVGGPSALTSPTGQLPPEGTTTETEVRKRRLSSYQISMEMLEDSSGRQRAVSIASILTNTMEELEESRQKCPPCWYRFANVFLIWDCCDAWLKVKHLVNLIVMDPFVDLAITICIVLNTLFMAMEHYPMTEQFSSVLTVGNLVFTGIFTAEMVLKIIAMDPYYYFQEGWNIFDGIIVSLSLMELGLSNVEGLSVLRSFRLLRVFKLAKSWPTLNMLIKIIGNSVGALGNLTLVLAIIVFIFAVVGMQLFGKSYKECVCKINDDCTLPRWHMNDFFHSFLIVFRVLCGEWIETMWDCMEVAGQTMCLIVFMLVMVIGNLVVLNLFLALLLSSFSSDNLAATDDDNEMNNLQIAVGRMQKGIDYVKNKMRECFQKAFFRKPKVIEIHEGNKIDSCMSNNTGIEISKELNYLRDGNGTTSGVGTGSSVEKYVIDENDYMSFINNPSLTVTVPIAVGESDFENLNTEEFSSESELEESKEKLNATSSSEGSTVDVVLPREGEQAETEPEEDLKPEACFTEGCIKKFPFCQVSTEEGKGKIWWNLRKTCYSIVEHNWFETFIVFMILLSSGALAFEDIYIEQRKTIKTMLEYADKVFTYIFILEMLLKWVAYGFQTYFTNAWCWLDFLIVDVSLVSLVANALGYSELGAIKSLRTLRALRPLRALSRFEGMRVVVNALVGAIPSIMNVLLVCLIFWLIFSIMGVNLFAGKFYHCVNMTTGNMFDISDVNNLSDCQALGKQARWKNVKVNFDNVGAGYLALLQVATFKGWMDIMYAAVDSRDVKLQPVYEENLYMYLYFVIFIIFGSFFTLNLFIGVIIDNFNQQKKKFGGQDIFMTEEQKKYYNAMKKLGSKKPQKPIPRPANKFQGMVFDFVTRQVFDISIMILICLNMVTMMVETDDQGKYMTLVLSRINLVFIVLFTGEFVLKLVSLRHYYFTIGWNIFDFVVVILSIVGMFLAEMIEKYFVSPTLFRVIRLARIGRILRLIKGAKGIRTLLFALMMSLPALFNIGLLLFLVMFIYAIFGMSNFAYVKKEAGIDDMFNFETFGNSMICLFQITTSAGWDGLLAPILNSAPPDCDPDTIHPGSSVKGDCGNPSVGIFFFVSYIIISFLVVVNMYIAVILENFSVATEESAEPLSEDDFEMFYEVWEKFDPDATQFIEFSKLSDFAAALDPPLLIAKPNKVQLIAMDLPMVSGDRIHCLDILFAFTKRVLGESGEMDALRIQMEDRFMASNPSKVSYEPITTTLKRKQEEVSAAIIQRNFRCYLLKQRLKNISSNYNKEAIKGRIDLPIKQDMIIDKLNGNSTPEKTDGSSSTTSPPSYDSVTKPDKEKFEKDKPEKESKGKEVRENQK
# hNav1.5, sequence (Q14524 whole entry, looked up): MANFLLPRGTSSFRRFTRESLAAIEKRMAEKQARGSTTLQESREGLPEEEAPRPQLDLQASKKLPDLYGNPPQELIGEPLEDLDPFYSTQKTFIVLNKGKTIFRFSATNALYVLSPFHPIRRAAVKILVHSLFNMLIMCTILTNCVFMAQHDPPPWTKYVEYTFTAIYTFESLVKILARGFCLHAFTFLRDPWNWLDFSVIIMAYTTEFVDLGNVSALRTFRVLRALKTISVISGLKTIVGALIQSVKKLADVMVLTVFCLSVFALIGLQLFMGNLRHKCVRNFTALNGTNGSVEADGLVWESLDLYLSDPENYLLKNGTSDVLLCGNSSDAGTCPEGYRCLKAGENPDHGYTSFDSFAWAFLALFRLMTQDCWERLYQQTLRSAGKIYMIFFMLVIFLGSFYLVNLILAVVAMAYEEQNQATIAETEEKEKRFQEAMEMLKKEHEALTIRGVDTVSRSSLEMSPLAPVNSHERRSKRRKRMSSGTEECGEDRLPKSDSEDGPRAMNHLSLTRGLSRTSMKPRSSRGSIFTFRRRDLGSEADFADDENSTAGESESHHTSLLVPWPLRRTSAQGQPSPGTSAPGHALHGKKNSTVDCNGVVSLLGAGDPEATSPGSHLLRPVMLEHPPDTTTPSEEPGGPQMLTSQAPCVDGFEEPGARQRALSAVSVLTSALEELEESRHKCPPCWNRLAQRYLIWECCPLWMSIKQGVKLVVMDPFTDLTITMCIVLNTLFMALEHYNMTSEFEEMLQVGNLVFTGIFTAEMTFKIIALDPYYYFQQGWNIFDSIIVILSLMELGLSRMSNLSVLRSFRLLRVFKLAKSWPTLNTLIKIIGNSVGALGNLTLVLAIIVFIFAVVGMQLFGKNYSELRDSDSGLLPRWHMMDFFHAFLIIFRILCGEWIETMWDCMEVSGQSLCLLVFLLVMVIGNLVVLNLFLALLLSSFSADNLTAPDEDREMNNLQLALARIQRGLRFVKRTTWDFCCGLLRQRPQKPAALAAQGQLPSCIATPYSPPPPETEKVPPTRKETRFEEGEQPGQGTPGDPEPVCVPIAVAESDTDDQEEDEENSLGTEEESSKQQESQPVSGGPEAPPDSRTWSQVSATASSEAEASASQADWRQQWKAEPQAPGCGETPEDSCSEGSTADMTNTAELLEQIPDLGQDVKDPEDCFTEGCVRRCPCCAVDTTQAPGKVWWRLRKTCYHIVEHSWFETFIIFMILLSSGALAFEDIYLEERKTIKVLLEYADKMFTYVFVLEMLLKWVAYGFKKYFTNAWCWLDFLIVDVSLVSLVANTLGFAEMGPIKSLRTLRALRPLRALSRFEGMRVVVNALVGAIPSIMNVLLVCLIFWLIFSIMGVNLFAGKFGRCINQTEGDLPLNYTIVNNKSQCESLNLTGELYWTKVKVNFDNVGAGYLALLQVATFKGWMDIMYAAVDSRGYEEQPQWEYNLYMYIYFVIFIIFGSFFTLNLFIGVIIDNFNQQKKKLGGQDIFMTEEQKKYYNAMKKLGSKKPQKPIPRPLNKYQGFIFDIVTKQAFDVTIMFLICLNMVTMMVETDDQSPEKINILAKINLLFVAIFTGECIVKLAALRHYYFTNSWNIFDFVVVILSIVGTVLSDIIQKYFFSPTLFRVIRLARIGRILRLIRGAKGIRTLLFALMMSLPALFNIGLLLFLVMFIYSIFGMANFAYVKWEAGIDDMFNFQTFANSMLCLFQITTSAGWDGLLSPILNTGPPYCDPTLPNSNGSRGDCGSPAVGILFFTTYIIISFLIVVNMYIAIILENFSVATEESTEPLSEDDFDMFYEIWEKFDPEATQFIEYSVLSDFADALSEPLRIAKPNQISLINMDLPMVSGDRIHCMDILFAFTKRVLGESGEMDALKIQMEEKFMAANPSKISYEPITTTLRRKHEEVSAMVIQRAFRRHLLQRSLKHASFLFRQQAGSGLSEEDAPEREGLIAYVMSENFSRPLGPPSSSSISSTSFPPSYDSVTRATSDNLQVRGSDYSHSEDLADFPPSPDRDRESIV
Structure (SMILES),IC50 (hNav1.7) [µM],IC50 (hNav1.5) [µM],IC50 (hNav1.3) [µM]
"CC[C@H](C)[C@@H]1NC(=O)[C@@H]2CSSC[C@@H]3NC(=O)[C@H](C(C)C)NC(=O)[C@H](CC(C)C)NC(=O)[C@H](CC(N)=O)NC(=O)[C@@H]4CCCN4C(=O)[C@H](CCCNC(=N)N)NC(=O)[C@H](CSSC[C@H](NC(=O)[C@@H](N)CC(=O)O)C(=O)N[C@@H](CC(C)C)C(=O)NCC(=O)N[C@@H](Cc4ccccc4)C(=O)N[C@@H](CCSC)C(=O)N[C@@H](CCCNC(=N)N)C(=O)N[C@@H](CCCCN)C(=O)N2)NC(=O)[C@H](CSSC[C@@H](C(=O)N[C@@H](CCCCN)C(=O)N[C@@H](Cc2c[nH]cn2)C(=O)N[C@H](C(=O)N[C@@H](Cc2ccccc2)C(N)=O)C(C)C)NC(=O)[C@H](Cc2c[nH]c4ccccc24)NC(=O)[C@H](CCCCN)NC(=O)[C@H](Cc2c[nH]cn2)NC(=O)[C@H]([C@@H](C)O)NC(=O)[C@H](CCCNC(=N)N)NC(=O)[C@H](CO)NC3=O)NC(=O)[C@H](CCCCN)NC(=O)[C@H](CC(=O)O)NC(=O)[C@H](CC(N)=O)NC(=O)[C@H](CC(=O)O)NC(=O)[C@@H]2CCCN2C1=O [compound 380] (H-DCLGFMRKCIPDNDKCCRPNLVCSRTHKWCKHVF-NH2; disulfide 2-17, 9-23, 16-30)",0.6,10.2,0.75
"CC[C@H](C)[C@@H]1NC(=O)[C@@H]2CSSC[C@@H]3NC(=O)[C@H](C(C)C)NC(=O)[C@H](CC(C)C)NC(=O)[C@H](CC(N)=O)NC(=O)[C@@H]4CCCN4C(=O)[C@H](CCCNC(=N)N)NC(=O)[C@H](CSSC[C@H](NC(=O)[C@@H](N)CC(=O)O)C(=O)N[C@@H](CC(C)C)C(=O)NCC(=O)N[C@@H](Cc4ccccc4)C(=O)N[C@@H](CCSC)C(=O)N[C@@H](CCCNC(=N)N)C(=O)N[C@@H](CCCCN)C(=O)N2)NC(=O)[C@H](CSSC[C@@H](C(=O)N[C@@H](CCCCN)C(=O)N[C@@H](Cc2ccc(I)cc2)C(=O)N[C@H](C(=O)N[C@@H](Cc2ccccc2)C(N)=O)C(C)C)NC(=O)[C@H](Cc2c[nH]c4ccccc24)NC(=O)[C@H](CCCCN)NC(=O)[C@H](Cc2c[nH]cn2)NC(=O)[C@H]([C@@H](C)O)NC(=O)[C@H](CCCNC(=N)N)NC(=O)[C@H](CO)NC3=O)NC(=O)[C@H](CCCCN)NC(=O)[C@H](CC(=O)O)NC(=O)[C@H](CC(N)=O)NC(=O)[C@H](CC(=O)O)NC(=O)[C@@H]2CCCN2C1=O [compound 381] (H-DCLGFMRKCIPDNDKCCRPNLVCSRTHKWCK[Phe(4-I)]VF-NH2; disulfide 2-17, 9-23, 16-30)",0.03,4.44,0.01
"CC[C@H](C)[C@@H]1NC(=O)[C@@H]2CSSC[C@@H]3NC(=O)[C@H](C(C)C)NC(=O)[C@H](CC(C)C)NC(=O)[C@H](CC(N)=O)NC(=O)[C@@H]4CCCN4C(=O)[C@H](CCCNC(=N)N)NC(=O)[C@H](CSSC[C@H](NC(=O)[C@@H](N)CC(=O)O)C(=O)N[C@@H](CC(C)C)C(=O)NCC(=O)N[C@@H](Cc4ccccc4)C(=O)N[C@@H](CCSC)C(=O)N[C@@H](CCCNC(=N)N)C(=O)N[C@@H](CCCCN)C(=O)N2)NC(=O)[C@H](CSSC[C@@H](C(=O)N[C@@H](CCCCN)C(=O)N[C@@H](CO)C(=O)N[C@H](C(=O)N[C@@H](Cc2ccccc2)C(N)=O)C(C)C)NC(=O)[C@H](Cc2c[nH]c4ccccc24)NC(=O)[C@H](CCCCN)NC(=O)[C@H](Cc2c[nH]cn2)NC(=O)[C@H]([C@@H](C)O)NC(=O)[C@H](CCCNC(=N)N)NC(=O)[C@H](CO)NC3=O)NC(=O)[C@H](CCCCN)NC(=O)[C@H](CC(=O)O)NC(=O)[C@H](CC(N)=O)NC(=O)[C@H](CC(=O)O)NC(=O)[C@@H]2CCCN2C1=O [compound 382] (H-DCLGFMRKCIPDNDKCCRPNLVCSRTHKWCKSVF-NH2; disulfide 2-17, 9-23, 16-30)",3.95,> 5,1.47
"CC[C@H](C)[C@@H]1NC(=O)[C@@H]2CSSC[C@@H]3NC(=O)[C@H](C(C)C)NC(=O)[C@H](CC(C)C)NC(=O)[C@H](CC(N)=O)NC(=O)[C@@H]4CCCN4C(=O)[C@H](CCCNC(=N)N)NC(=O)[C@H](CSSC[C@H](NC(=O)[C@@H](N)CC(=O)O)C(=O)N[C@@H](CC(C)C)C(=O)NCC(=O)N[C@@H](Cc4ccccc4)C(=O)N[C@@H](CCSC)C(=O)N[C@@H](CCCNC(=N)N)C(=O)N[C@@H](CCCCN)C(=O)N2)NC(=O)[C@H](CSSC[C@@H](C(=O)N[C@@H](CCCCN)C(=O)N2CCC[C@H]2C(=O)N[C@H](C(=O)N[C@@H](Cc2ccccc2)C(N)=O)C(C)C)NC(=O)[C@H](Cc2c[nH]c4ccccc24)NC(=O)[C@H](CCCCN)NC(=O)[C@H](Cc2c[nH]cn2)NC(=O)[C@H]([C@@H](C)O)NC(=O)[C@H](CCCNC(=N)N)NC(=O)[C@H](CO)NC3=O)NC(=O)[C@H](CCCCN)NC(=O)[C@H](CC(=O)O)NC(=O)[C@H](CC(N)=O)NC(=O)[C@H](CC(=O)O)NC(=O)[C@@H]2CCCN2C1=O [compound 383] (H-DCLGFMRKCIPDNDKCCRPNLVCSRTHKWCKPVF-NH2; disulfide 2-17, 9-23, 16-30)",> 5,> 5,> 5
"CC[C@H](C)[C@@H]1NC(=O)[C@@H]2CSSC[C@@H]3NC(=O)[C@H](C(C)C)NC(=O)[C@H](CC(C)C)NC(=O)[C@H](CC(N)=O)NC(=O)[C@@H]4CCCN4C(=O)[C@H](CCCNC(=N)N)NC(=O)[C@H](CSSC[C@H](NC(=O)[C@@H](N)CC(=O)O)C(=O)N[C@@H](CC(C)C)C(=O)NCC(=O)N[C@@H](Cc4ccccc4)C(=O)N[C@@H](CCSC)C(=O)N[C@@H](CCCNC(=N)N)C(=O)N[C@@H](CCCCN)C(=O)N2)NC(=O)[C@H](CSSC[C@@H](C(=O)N[C@@H](CCCCN)C(=O)N[C@@H](Cc2ccccn2)C(=O)N[C@H](C(=O)N[C@@H](Cc2ccccc2)C(N)=O)C(C)C)NC(=O)[C@H](Cc2c[nH]c4ccccc24)NC(=O)[C@H](CCCCN)NC(=O)[C@H](Cc2c[nH]cn2)NC(=O)[C@H]([C@@H](C)O)NC(=O)[C@H](CCCNC(=N)N)NC(=O)[C@H](CO)NC3=O)NC(=O)[C@H](CCCCN)NC(=O)[C@H](CC(=O)O)NC(=O)[C@H](CC(N)=O)NC(=O)[C@H](CC(=O)O)NC(=O)[C@@H]2CCCN2C1=O [compound 384] (H-DCLGFMRKCIPDNDKCCRPNLVCSRTHKWCK[2Pal]VF-NH2; disulfide 2-17, 9-23, 16-30)",0.81,7.65,0.66
"CC[C@H](C)[C@@H]1NC(=O)[C@@H]2CSSC[C@@H]3NC(=O)[C@H](C(C)C)NC(=O)[C@H](CC(C)C)NC(=O)[C@H](CC(N)=O)NC(=O)[C@@H]4CCCN4C(=O)[C@H](CCCNC(=N)N)NC(=O)[C@H](CSSC[C@H](NC(=O)[C@@H](N)CC(=O)O)C(=O)N[C@@H](CC(C)C)C(=O)NCC(=O)N[C@@H](Cc4ccccc4)C(=O)N[C@@H](CCSC)C(=O)N[C@@H](CCCNC(=N)N)C(=O)N[C@@H](CCCCN)C(=O)N2)NC(=O)[C@H](CSSC[C@@H](C(=O)N[C@@H](CCCCN)C(=O)N[C@@H](Cc2ccc(C(=O)O)cc2)C(=O)N[C@H](C(=O)N[C@@H](Cc2ccccc2)C(N)=O)C(C)C)NC(=O)[C@H](Cc2c[nH]c4ccccc24)NC(=O)[C@H](CCCCN)NC(=O)[C@H](Cc2c[nH]cn2)NC(=O)[C@H]([C@@H](C)O)NC(=O)[C@H](CCCNC(=N)N)NC(=O)[C@H](CO)NC3=O)NC(=O)[C@H](CCCCN)NC(=O)[C@H](CC(=O)O)NC(=O)[C@H](CC(N)=O)NC(=O)[C@H](CC(=O)O)NC(=O)[C@@H]2CCCN2C1=O [compound 385] (H-DCLGFMRKCIPDNDKCCRPNLVCSRTHKWCK[Phe(4-COOH)]VF-NH2; disulfide 2-17, 9-23, 16-30)",11.4,7.7,4.05
